# From US20100249205A1 (ARIZONA BOARD OF REGENTS, priority 2005, published 2010)
# Like-named read-outs stand apart in the source and are kept apart here.
# What was measured:
# [1] = system: phospho-Ser^473-Akt in HT-29 colon cancer cells; test: Inhibition of EGF-dependent activation of Akt (phospho-Ser473-Akt western blot); assay type: cell-based, human; settings: HT-29 cells, 4 hours exposure, EGF 50 ng/ml for 20 minutes
# Description: The cells were then stimulated with epidermal growth factor (EGF) at 50 ng/ml for 20 minutes. Cells were lysed and the proteins were separated on an SDS-PAGE and transferred to nitrocellulose.
# [2] = system: HT-29 human colon cancer cells; test: Cytotoxicity / cell growth inhibition in HT-29 cells, cell number by flow cytometry; assay type: cell-based; settings: read-out: growth inhibitory concentration 50% (IC50)
# Description: The compounds were added from a 10 mg/ml stock solution in ethanol. Cell number was determined after 3 days by flow cytometry using a Guava EasyCyte Plus flow cytometer (Guava Technologies). The results are expressed as cell number at the end of the assay as percent of the control value with no drug. Values are the mean of 3 determinations and bars are standard deviation.
# [3] = biological target: T1, recombinant bovine p110α/p85α (Bos taurus, UniProt P32871); test: Recombinant PI-3 kinase inhibition, [32P]γ-ATP dependent phosphorylation of phosphatidylinositol; assay type: biochemical
# T1 construct: purchased Jena Bioscience, Jena, Germany
# [4] = biological target: T2, recombinant human p110δ/p85α (Homo sapiens, UniProt O00329); test: as above; assay type: biochemical
# T2 construct: purchased Upstate, Charlottesville, Va
# PI-3 kinase = assay type: biochemical; settings: read-out: PI-3 kinase inhibition IC50
# mTOR = mTOR (Homo sapiens, UniProt P42345); test: mTOR inhibition (Table 1); assay type: biochemical
# NCI cell panel = test: Cytotoxicity, NCI cell panel (growth inhibition, MTT assay); settings: Homo sapiens, read-out: Cytotoxicity: NCI cell panel IC50
# Text: The proliferation of cells may be dependent on the PI-3 kinase-Akt-mTOR signaling pathway. In addition, signaling through PI-3 kinase and Akt appears to inhibit apoptosis. […] The MTT assay is a standard colorimetric assay for measuring cellular proliferation (cell growth). It is universally used to determine cytotoxicity of potential medicinal agents and other toxic materials. Yellow MTT (3-(4,5-Dimethylthiazol-2-yl)-2,5-diphenyltetrazolium bromide) is reduced to purple formazan in the mitochondria of living cells. This reduction takes place only when mitochondrial reductase enzymes are active, and therefore conversion is directly related to the number of viable (living) cells. […] Toxicities are measured at the maximum tolerated dose or the highest dose tested. […] Alanine aminotranferease (ALT) and aspartate aminotransferase (AST) are enzymes located in liver cells that leak out into the general circulation when liver cells are injured. […] A low liver toxicity and a high lymphocyte toxicity as a surrogate for inhibition of tumor cell growth is the desirable feature.
# [5] = Stability of PX-866 in buffer systems by HPLC; assay type: physicochemical; settings: for % remaining / % degradation: 1 mg/mL; for % remaining: within 2 hours, 4° C.; for % degradation: after 2 hours of storage
# Description: This solution was used as a stock to make the various test buffer solutions to be analyzed. The stock, in each case, was diluted 1:10 to a final storage concentration of 1 mg/mL with 5% dextrose for injection (D5W), sterile water for injection (SW), 0.9% sodium chloride for injection (NS), absolute ethanol (EtOH), and 20 mM sodium phosphate (NaH2PO4) buffer. Prior to analysis the test buffers were further diluted 1:100, to a final analytical concentration of 10 μg/mL, with 50:50 0.2% formic acid:methanol, v:v. 50 μL of each sample was then injected into the HPLC system (Alliance 2695 Separation Module, Waters, Milford, Mass.; see Table 2 for HPLC parameters) for analysis. The 2 hour and 24 hour test samples were stored, undiluted, at 4° C. prior to analysis while the 0 hour samples were immediately quantified following dilution.
# [6] = In vitro metabolism in murine S9 fractions; assay type: in vitro ADME; settings: phase I, phase II and phase I/II reactions, 60 min
# Description: Metabolites generated in these reactions were identified by HPLC runs, using a wavelength of 310 nm (see FIG. 6C). Peaks representing metabolites were identified by comparing the HPLC profiles (at 310 nm) in chromatograms from 0 min and 60 min reaction times. The corresponding mass spectral (MS) analysis of these peaks, using quadrupolar time-of-flight MS allowed the accurate mass of the metabolites to be determined (see FIG. 6D). Metabolynx software (Waters-MicroMass, Milford, Mass.) was used to interpret the spectra.
# We identified the M#1 as a reduction product which is most probably a non-microsomal carbonyl reduction of a ketone to a secondary alcohol, as described in previous metabolism studies. In addition, M#2-3 were the same reduction products however, the alteration in retention time may indicate that the molecule undergoes reduction in sites other than that observed with M#1.
# [7] = from U.S. application Ser. No. 11/178,553; cited from earlier work
# [8] = HT-29 cells, 3 days, cell number as percent of control
# T1 sequence (P32871 whole entry): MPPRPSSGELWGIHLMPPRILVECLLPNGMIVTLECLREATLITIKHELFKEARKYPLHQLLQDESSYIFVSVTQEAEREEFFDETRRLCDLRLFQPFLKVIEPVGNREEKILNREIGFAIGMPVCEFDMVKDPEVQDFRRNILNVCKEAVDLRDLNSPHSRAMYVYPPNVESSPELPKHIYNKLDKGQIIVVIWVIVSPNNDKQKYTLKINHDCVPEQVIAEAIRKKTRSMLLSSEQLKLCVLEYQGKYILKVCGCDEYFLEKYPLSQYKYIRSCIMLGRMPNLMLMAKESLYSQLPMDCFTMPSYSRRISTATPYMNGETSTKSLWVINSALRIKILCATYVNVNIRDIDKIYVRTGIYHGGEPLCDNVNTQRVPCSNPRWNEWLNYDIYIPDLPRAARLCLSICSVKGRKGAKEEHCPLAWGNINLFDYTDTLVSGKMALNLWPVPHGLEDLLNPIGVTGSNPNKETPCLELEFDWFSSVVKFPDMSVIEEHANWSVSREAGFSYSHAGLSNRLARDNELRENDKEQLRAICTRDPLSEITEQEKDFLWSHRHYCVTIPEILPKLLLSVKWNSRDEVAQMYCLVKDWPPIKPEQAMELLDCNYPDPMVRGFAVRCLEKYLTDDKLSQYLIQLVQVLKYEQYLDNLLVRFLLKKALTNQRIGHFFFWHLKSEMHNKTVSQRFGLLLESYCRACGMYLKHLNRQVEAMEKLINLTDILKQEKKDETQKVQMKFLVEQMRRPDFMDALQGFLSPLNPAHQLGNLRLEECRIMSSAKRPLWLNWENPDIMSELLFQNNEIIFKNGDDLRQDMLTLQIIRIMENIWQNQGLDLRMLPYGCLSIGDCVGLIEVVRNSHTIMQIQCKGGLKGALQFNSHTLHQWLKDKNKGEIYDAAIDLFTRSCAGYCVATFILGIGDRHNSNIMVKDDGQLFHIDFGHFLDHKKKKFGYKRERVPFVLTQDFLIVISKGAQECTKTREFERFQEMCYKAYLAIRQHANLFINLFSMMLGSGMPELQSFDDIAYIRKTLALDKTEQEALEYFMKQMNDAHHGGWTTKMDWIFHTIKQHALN
# T1 sequence (P23727 whole entry partner): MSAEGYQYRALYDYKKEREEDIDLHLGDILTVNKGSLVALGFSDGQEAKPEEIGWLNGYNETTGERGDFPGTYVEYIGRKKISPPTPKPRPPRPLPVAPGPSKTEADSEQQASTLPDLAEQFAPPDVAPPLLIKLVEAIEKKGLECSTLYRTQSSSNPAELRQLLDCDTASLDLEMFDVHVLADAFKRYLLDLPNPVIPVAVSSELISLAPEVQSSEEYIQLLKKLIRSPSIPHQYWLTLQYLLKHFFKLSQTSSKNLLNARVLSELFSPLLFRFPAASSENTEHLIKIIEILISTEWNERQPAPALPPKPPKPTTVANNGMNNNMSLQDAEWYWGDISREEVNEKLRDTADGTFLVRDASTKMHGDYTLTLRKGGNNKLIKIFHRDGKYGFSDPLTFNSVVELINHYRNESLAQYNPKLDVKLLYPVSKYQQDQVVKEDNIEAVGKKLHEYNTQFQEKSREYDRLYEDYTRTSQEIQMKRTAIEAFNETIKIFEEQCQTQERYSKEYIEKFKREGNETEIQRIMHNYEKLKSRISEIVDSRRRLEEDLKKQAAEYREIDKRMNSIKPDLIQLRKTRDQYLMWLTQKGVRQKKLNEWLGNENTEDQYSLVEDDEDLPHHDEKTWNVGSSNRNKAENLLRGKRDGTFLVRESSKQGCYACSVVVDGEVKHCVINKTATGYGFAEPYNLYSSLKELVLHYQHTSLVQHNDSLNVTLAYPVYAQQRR
# T2 sequence (O00329 whole entry): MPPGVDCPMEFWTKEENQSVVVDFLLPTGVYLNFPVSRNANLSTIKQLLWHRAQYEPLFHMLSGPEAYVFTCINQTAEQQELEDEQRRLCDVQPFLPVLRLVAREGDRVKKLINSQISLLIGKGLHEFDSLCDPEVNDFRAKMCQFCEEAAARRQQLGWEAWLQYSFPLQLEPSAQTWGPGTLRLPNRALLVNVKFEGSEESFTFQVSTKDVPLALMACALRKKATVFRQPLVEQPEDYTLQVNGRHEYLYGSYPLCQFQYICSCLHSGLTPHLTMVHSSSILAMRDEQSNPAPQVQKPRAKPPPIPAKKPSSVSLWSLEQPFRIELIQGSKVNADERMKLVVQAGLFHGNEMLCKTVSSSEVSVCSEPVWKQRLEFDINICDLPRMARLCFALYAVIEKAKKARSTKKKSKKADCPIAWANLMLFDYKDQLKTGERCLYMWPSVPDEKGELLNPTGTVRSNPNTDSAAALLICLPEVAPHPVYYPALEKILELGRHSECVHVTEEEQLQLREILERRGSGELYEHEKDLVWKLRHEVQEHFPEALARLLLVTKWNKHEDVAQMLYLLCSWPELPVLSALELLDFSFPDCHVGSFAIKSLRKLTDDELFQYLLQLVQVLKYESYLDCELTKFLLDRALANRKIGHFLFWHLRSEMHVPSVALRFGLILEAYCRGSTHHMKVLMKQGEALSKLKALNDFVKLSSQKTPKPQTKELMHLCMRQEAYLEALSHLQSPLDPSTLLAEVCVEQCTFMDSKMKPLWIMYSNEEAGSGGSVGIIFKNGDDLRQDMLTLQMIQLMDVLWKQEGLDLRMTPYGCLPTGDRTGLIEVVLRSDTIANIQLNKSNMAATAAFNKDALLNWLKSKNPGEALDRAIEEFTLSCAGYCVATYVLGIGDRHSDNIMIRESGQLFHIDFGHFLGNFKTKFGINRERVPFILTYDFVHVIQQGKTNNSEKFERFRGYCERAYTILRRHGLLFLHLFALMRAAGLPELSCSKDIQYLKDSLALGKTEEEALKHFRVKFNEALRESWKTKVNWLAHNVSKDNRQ
# T2 sequence (P27986 whole entry partner): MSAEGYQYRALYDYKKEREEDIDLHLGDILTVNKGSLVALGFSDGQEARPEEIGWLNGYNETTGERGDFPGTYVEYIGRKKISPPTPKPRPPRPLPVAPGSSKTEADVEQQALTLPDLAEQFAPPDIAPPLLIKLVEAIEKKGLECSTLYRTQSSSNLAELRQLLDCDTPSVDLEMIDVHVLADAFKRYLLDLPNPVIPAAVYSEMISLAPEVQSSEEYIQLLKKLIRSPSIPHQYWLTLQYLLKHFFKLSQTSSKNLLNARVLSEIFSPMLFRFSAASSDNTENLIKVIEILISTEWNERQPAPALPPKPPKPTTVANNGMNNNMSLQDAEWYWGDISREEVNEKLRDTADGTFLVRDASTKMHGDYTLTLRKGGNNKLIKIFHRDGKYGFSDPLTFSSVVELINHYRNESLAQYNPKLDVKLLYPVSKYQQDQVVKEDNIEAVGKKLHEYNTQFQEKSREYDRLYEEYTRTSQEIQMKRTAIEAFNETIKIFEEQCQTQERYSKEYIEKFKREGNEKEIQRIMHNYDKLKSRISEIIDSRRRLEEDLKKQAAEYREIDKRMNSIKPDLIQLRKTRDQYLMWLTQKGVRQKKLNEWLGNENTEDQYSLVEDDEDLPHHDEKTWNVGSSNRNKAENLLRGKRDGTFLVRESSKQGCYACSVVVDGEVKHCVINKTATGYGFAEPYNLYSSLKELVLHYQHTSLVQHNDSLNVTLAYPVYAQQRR
Compound,IC50 for inhibition of phospho-Ser473-Akt (ratio to total Akt) [1],"IC50 [2, 8]",inhibition of p110α isoform of PI-3 kinase [3],inhibition of p110δ isoform of PI-3 kinase [4],IC50 (PI-3 kinase),IC50 (NCI cell panel),other results
"11-deacetylated,17-hydroxy PX-866 [PX-866-1]",greater than 70 nM,4.5 µM,considerably less active,considerably less active,,,
17-hydroxy PX-866 [PX-866-2],0.04 µM,> 50 µM,as active as PX-866 or wortmannin,as active as PX-866 or wortmannin,,,
"C=CCN(/C=C1/C(=O)O[C@H](COC)[C@@]2(C)C1=C(O)C(=O)C1=C2[C@H](OC(C)=O)C[C@]2(C)C(=O)CC[C@@H]12)CC=C [PX-866, Acetic acid 4-diallylaminomethylene-6-hydroxy-1-α-methoxymethyl-10β,13β-dimethyl-3,7,17-trioxo-1,3,4,7,10,11β,12,13,14α,15,16,17-dodecahydro-2-oxa-cyclopenta[α]phenanthren-11-yl ester]",,,,,0.0005 µM,2.2 µM,"IC50 (mTOR; read-out: mTOR inhibition IC50): > 3 µM; IC50 ([2]; Homo sapiens, HT-29, 72 h): 4 µM; % remaining ([5]; 20 mM sodium phosphate buffer): > 60%; % remaining ([5]; D5W (5% dextrose for injection)): > 80%; % degradation ([5]; EtOH (absolute ethanol)): < 10%; % degradation ([5]; NS (0.9% sodium chloride for injection)): < 10%; % degradation ([5]; SW (sterile water for injection)): < 10%; stability from 2 to 24 hours ([5]; regardless of the buffer system employed): maintained relative stability; type of metabolites formed [6]: only Phase I-type metabolites were formed; blood levels following oral administration [7]: low"
"COCC1OC(=O)C(=CN2CCCC2)C2=C(O)C(=O)C3=C(C(OC(C)=O)CC4(C)C(=O)CCC34)C21C (stereo not drawn) [PX-867, Acetic acid 6-hydroxy-1α-methoxymethyl-10β,13β-dimethyl-3,7,17-trioxo-4-pyrrolidin-1-yl-methylene-1,3,4,7,10,11β,12,13,14α,15,16,17-dodecahydro-2-oxa-cyclopenta[α]phenanthren-11-yl]",,,,,0.0011 µM,0.5 µM,IC50 (mTOR): > 3 µM
"COC[C@H]1OC(=O)c2coc3c2[C@@]1(C)C1=C(C3=O)[C@@H]2CCC(=O)[C@@]2(C)C[C@H]1OC(C)=O [Wortmannin, wortmannin, reference compound]",,,,,,8.9 µM,
